Assay: Stability over time of foaming surfactants in formulation intermediate B with high sodium bicarbonate
Assay type: physicochemical
Conditions: incorporated in formulation intermediate B, high concentration of sodium bicarbonate
Procedure: The applicant company has known how to select a foaming surfactant which is stable over time in the presence of a high concentration of sodium bicarbonate. The following surfactants were tested in the mixture: Sodium C14-C16 Olefin Sulfonate sold by Clariant under the name Hostapur® OSB or else Hostapur® OS Liq but also Nansa® LSS 495-H sold by Huntsman, Rodacal LSS 80 RPB from Rhodia, BIO-Terge® AS-90 beads from Stepan, Sodium Cocoyl Glycinate sold by Clariant under the name Hostapon® SG, Sodium Cocoyl Isethionate sold by Clariant under the name Hostapon® SCI85 G, Sodium Lauroyl Methyl Isethionate sold by Innospec under the name Iselux® LG, Decyl Glucoside sold by Cognis under the name Plantacare® 2000 Up, Zinc Coceth Sulfate sold by Zschimmer & Schwarz under the name Zetesol® Zn, Glyceryl Monolaurate sold by Rossow under the name POEM® DL 100, and Disodium PEG-5 Laurylcitrate Sulfosuccinate sold by Evonik under the name Rewopol SB C55®.

Substance: Sodium C14-16 Olefin Sulfonate
- retention of foaming and organoleptic properties (color, odor): retained its foaming properties and its organoleptic properties
